Experimental data: patent US20180179198A1, “TRICYCLIC MODULATORS OF TNF SIGNALING” (AbbVie Inc., priority 2015, published 2018)

Target: TNFα trimer (Homo sapiens, UniProt P01375)
Experiment: TNFα FP Competitive Binding Assay
Conditions: TNFα FP competitive binding assay; class symbols A/B/C; read-out: TNF IC50
Procedure, shortened: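 Fluorescence polarization displacement: 20 nM TNFα trimer (60 nM protein) with 1 nM fluorescein-labelled bis-isoquinoline probe in HEPES/NaCl/EDTA/Triton X-100 buffer. 12-point 1:3 compound series, top final 338 μM (3.4% DMSO) or 100 μM (2.0% DMSO); 18-24 h at 37 °C, then 1 h rt before background-subtracted mP read; variable-slope curve fit.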

Sequence of TNFα trimer (P01375 77-233 limits assumed): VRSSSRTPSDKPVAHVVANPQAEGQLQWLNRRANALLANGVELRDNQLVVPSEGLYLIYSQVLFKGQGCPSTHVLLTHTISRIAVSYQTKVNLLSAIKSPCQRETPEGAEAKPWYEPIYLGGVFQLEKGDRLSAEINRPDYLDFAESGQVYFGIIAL

Compound | IC50 [µM]
OC1CCN(c2ncc(-c3ccc4nc5n(c4c3)C(c3cccc(F)c3)COC5)cn2)CC1(F)F (stereo not drawn) [X.1] | < 1
O=C1NC[C@@H]2CN(c3ncc(-c4ccc5nc6c(n5c4)[C@@H](c4ccccc4)COC6)cn3)CCN12 [AF.1] | < 1
c1ccc(C2COCc3nc4ccc(-c5cnc6nonc6c5)cc4n32)cc1 (stereo not drawn) [T.3] | 1 to 10
O[C@H]1CC[C@@H](Oc2cc(-c3ccc4nc5n(c4n3)[C@@H](c3ccccc3)CC5)ccn2)CC1 [AR.1] | 1 to 10
O=c1cc(-c2ccc3nc4n(c3n2)[C@@H](c2ccccc2)CC4)ccn1CC1CCOCC1 [AW.3] | 1 to 10
CC(=O)Nc1ccc(-c2ccc3nc4n(c3c2)C(c2ccccc2)COC4)cn1 (stereo not drawn) [T.6] | 10 to 100
COc1cccc([C@H]2CCc3nc4ccc(-c5cnc(N6CCN7C(=O)NC[C@@H]7C6)nc5)nc4n32)c1 [AM.1] | < 1
O=C1NCC2CN(c3ncc(-c4ccc5nc6n(c5c4)C(c4cccc(F)c4)COC6)cn3)CCN12 (stereo not drawn) [V.1] | < 1
Cc1cc(-c2ccc3nc4n(c3c2)C(c2ccccc2)COC4)cnc1N1CCOCC1 (stereo not drawn) [T.12] | 1 to 10
Cc1ccc(C)c([C@@H]2CCc3nc4ccc(-c5cnc(C(C)(C)O)nc5)cc4n32)c1 [Y.9] | 1 to 10
O=C1NC[C@@H]2CN(c3ncc(-c4ccc5nc6c(n5n4)[C@@H](c4ccccc4)COC6)cn3)CCN12 [AF.2] | < 1
N#Cc1ncc(-c2ccc3nc4n(c3c2)C(c2ccccc2)COC4)cn1 (stereo not drawn) [T.15] | 1 to 10
COc1ccccc1[C@H]1CCCc2nc3ccc(-c4cnc(C(C)(C)O)nc4)cn3c21 [Y.6] | < 1
COc1ccccc1C1CCCc2nc3ccc(-c4cnc(N5CCC(F)(CO)CC5)nc4)cn3c21 (stereo not drawn) [AJ.3] | < 1
c1ccc(C2COCc3nc4ccc(-c5ccc(N6CCNCC6)nc5)cc4n32)cc1 (stereo not drawn) [T.10] | 1 to 10
Fc1cccc([C@H]2COCc3nc4ccc(-c5cnc(N6CCOCC6)nc5)cc4n32)c1 [Y.7] | < 1
OC1CCCC(Oc2cc(-c3ccc4nc5n(c4n3)[C@@H](c3ccccc3)CC5)ccn2)C1 (stereo partly drawn) [AQ.4] | 1 to 10
OCCOc1cc(-c2ccc3nc4n(c3n2)[C@@H](c2ccccc2)CC4)ccn1 [AQ.7] | 1 to 10

Results, then the compound that gave them:

IC50 [µM] | Compound
< 1 | O[C@H]1CC[C@H](Oc2cc(-c3ccc4nc5n(c4n3)C3(COC5)COc4ccccc43)ccn2)CC1 (stereo partly drawn) [AX.1]
1 to 10 | CN1CCN(c2ncc(-c3ccc4nc5n(c4n3)C3(CCOc4ccccc43)COC5)cn2)CC1 (stereo not drawn) [BB.8]
1 to 10 | c1ccc(C2C3CC(C3)c3nc4ccc(-c5cnc(N6CCOCC6)nc5)nc4n32)cc1 (stereo not drawn) [BE.1]
< 1 | OC1CCCN(c2ncc(-c3ccc4nc5n(c4n3)C3(CCc4ccccc43)COC5)cn2)CC1 (stereo not drawn) [AV.9]
< 1 | OC1CCN(c2ncc(-c3ccc4nc5n(c4n3)C3(CCOc4ccccc43)COC5)cn2)CC1 (stereo not drawn) [BB.2]
< 1 | OC1CCN(c2ncc(-c3ccc4nc5n(c4n3)C(c3cccc(F)c3)COC5)cn2)CC1 (stereo not drawn) [AI.1]
1 to 10 | CS(=O)(=O)c1ncc(-c2ccc3nc4n(c3n2)C2(CCOc3ccccc32)COC4)cn1 (stereo not drawn) [BA.3]
< 1 | O=C1NCN2CCN(c3ncc(-c4ccc5nc6n(c5n4)[C@@H](c4ccccc4)COC6)cn3)CC12 (stereo partly drawn) [AB.5]
< 1 | OC1CCN(c2ncc(-c3ccc4nc5n(c4n3)C(c3ccccc3)COC5)cn2)CC1(F)F (stereo not drawn) [AZ.1]
< 1 | OC1CCN(c2ncc(-c3ccc4nc5n(c4n3)C(c3ccccc3)COC5)cn2)CC1 (stereo not drawn) [AZ.2]
< 1 | COc1ccccc1[C@H]1CCc2nc3ccc(-c4cnc(N5CCN6C(=O)NC[C@@H]6C5)nc4)nc3n21 [AO.1]
< 1 | OC1CCN(c2ncc(-c3ccc4nc5n(c4n3)[C@@]3(COC5)COc4ccccc43)cn2)CC1 [BJ.1]
< 1 | OC1CN(c2ncc(-c3ccc4nc5n(c4n3)C3(CCOc4ccccc43)COC5)cn2)C1 (stereo not drawn) [BB.4]

Same assay, conditions: Table BM; read-out: TNF IC50

IC50 [µM] | Compound
1 to 10 | C[C@@H]1CN(c2ncc(-c3ccc4nc5n(c4n3)[C@]3(COC5)COc4ccccc43)cn2)CCN1C(=O)CO [BM.1]

Same assay, conditions: Table BO; read-out: TNF IC50

IC50 [µM] | Compound
1 to 10 | OC1CCN(c2ncc(-c3ccc4nc5n(c4n3)C3(COCc4ccccc43)COC5)cn2)CC1 (stereo not drawn) [BO.1]

Same assay, conditions: fluorescence polarization competition; 20 nM TNFα trimer, 1 nM OregonGreen488 probe; read-out: TNF IC50 (TNFα FP binding assay IC50)

Compound | IC50 [µM]
Cc1ccc(C2(O)CCCc3nc4ccc(-c5cnc(N6CCOCC6)nc5)cn4c32)cc1 (stereo not drawn) [I.8] | 1 to 10
CC1(O)CCN(c2ncc(-c3ccc4nc5n(c4c3)[C@@H](c3ccccc3)COC5)cn2)CC1 [G.22] | < 1
CS(=O)(=O)[C@@H]1CCN(c2ncc(-c3ccc4nc5n(c4c3)[C@@H](c3ccccc3)COC5)cn2)C1 [G.18] | 1 to 10
c1ccc([C@H]2CCc3nc4ccc(-c5ccnc(O[C@H]6CCNC6)c5)nc4n32)cc1 [Example 49] | 1 to 10
CC(C)(O)c1ncc(-c2ccc3nc4n(c3n2)[C@](C)(c2ccccc2)CC4)cn1 [(S)-2-(5-(8-methyl-8-phenyl-7,8-dihydro-6H-pyrrolo[2′,1′:2,3]imidazo[4,5-b]pyridin-2-yl)pyrimidin-2-yl)propan-2-ol] | 10 to 100
OC1(c2cccc(F)c2)CCCCc2nc3ccc(-c4cnc(N5CCOCC5)nc4)cn3c21 (stereo not drawn) [J.1] | < 1
CC(C)(O)c1ncc(-c2ccc3nc4n(c3n2)[C@@](C)(c2ccccc2)CC4)cn1 [(R)-2-(5-(8-methyl-8-phenyl-7,8-dihydro-6H-pyrrolo[2′,1′:2,3]imidazo[4,5-b]pyridin-2-yl)pyrimidin-2-yl)propan-2-ol] | < 1
CS(=O)(=O)c1ccc(-c2ccc3nc4n(c3c2)C(c2ccccc2)CC4)cc1 (stereo not drawn) [A.5] | < 1
O=C(O)C1CN(c2ncc(-c3ccc4nc5n(c4c3)C(c3ccccc3)CCC5)cn2)C1 (stereo not drawn) [H.1] | 10 to 100
O=C1CN(c2ncc(-c3ccc4nc5n(c4c3)[C@@H](c3ccccc3)COC5)cn2)CCCN1 [G.9] | 1 to 10
c1ccc(C2CCc3nc4ccc(-c5cnn(Cc6cccnc6)c5)cc4n32)cc1 (stereo not drawn) [A.21] | 1 to 10
O=C1NCC2CN(c3ncc(-c4ccc5nc6n(c5c4)[C@@H](c4ccccc4)COC6)cn3)CCN12 (stereo partly drawn) [Example 9, 7-(5-((S)-4-Phenyl-3,4-dihydro-1H-benzo[4,5]imidazo[2,1-c][1,4]oxazin-7-yl)pyrimidin-2-yl)hexahydroimidazo[1,5-a]pyrazin-3(2H)-one] | < 1
O=C1NC[C@@H]2CN(c3ncc(-c4ccc5nc6n(c5c4)[C@@H](c4ccccc4)CC6)cn3)CCN12 [Example 24, (R)-7-(5-((R)-1-Phenyl-2,3-dihydro-1H-benzo[d]pyrrolo[1,2-a]imidazol-7-yl)pyrimidin-2-yl)hexahydroimidazo[1,5-a]pyrazin-3(2H)-one] | < 1
CN(C)C(=O)c1cccc(-c2ccc3nc4n(c3c2)C(c2ccccc2)CC4)c1 (stereo not drawn) [A.29] | 10 to 100
O=C(NC1CC1)c1ccc(-c2ccc3nc4n(c3c2)C(c2ccccc2)CC4)cc1 (stereo not drawn) [A.19] | 1 to 10
COc1ccccc1C1CCc2nc3ccc(-c4cnc(C(C)(C)O)nc4)cn3c21 (stereo not drawn) [Example 10, 2-(5-(1-(2-Methoxyphenyl)-2,3-dihydro-1H-cyclopenenta[4,5]imidazo[1,2-a]pyridin-7-yl)pyrimidin-2-yl)propan-2-ol] | < 1
Cc1ccc(C)c(C2CCc3nc4ccc(-c5cnc(C(C)(C)O)nc5)cc4n32)c1 (stereo not drawn) [B.2, 2-(5-(1-(2,5-Dimethylphenyl)-2,3-dihydro-1H-benzo[d]pyrrolo[1,2-a]imidazol-7-yl)pyrimidin-2-yl)propan-2-ol] | < 1
Nc1ccc(-c2ccc3nc4n(c3c2)C(c2ccccc2)CC4)cn1 (stereo not drawn) [A.27] | 10 to 100
CC(C)(O)c1ncc(-c2ccc3nc4n(c3n2)C(c2cccc(F)c2)CC4)cn1 (stereo not drawn) [M.2] | < 1
CS(=O)(=O)C1CCN(c2ncc(-c3ccc4nc5n(c4c3)[C@@H](c3ccccc3)COC5)cn2)C1 (stereo partly drawn) [G.29] | 1 to 10
OC1CC2(CCN(c3ncc(-c4ccc5nc6n(c5c4)[C@@H](c4ccccc4)COC6)cn3)C2)C1 (stereo partly drawn) [G.34] | < 1
Cc1cccc(C2(O)CCCCc3nc4ccc(-c5cnc(N6CCOCC6)nc5)cn4c32)c1 (stereo not drawn) [J.3] | 1 to 10
CC(C)(O)c1ncc(-c2ccc3nc4n(c3n2)C(c2ccccc2)CCC4)cn1 (stereo not drawn) [O.2] | < 1

Results, then the compound that gave them:

IC50 [µM] | Compound
< 1 | OC1CCCN(c2ncc(-c3ccc4nc5n(c4c3)[C@@H](c3ccccc3)COC5)cn2)CC1 (stereo partly drawn) [G.11]
1 to 10 | CC(C)(O)c1ncc(-c2ccc3nc4n(c3n2)C2(CCc3ccccc32)COC4O)cn1 (stereo not drawn) [Example 72, 2′-(2-(2-Hydroxypropan-2-yl)pyrimidin-5-yl)-2,3-dihydro-6′H,8′H-spiro[indene-1,9′-pyrido[3′,2′:4,5]imidazo[2,1-c][1,4]oxazin]-6′-ol]
< 1 | CC(C)(O)c1ncc(-c2ccc3nc4n(c3n2)C2(CCc3ccccc32)COC4)cn1 (stereo not drawn) [Example 68, 2-(5-(2,3-Dihydro-6′H,8′H-spiro[indene-1,9′-pyrido[3′,2′:4,5]imidazo[2,1-c][1,4]oxazin]-2′-yl)pyrimidin-2-yl)propan-2-ol]
1 to 10 | CC(C)(O)c1ncc(-c2ccc3nc4n(c3n2)C2(COC4)CC(=O)c3ccccc32)cn1 (stereo not drawn) [Example 69, 2′-(2-(2-Hydroxypropan-2-yl)pyrimidin-5-yl)-6′,8′-dihydrospiro[indene-1,9′-pyrido[3′,2′:4,5]imidazo[2,1-c][1,4]oxazin]-3(2H)-one]
1 to 10 | CN1CCC(C2CCN(c3ncc(-c4ccc5nc6n(c5c4)[C@@H](c4ccccc4)COC6)cn3)CC2)CC1 [G.21]
< 1 | O=C1NCC2CN(c3ncc(-c4ccc5nc6n(c5n4)C(c4ccccc4)COC6)cn3)CCN12 (stereo in doubt) [Example 58, (8aS)-7-(5-(9-Phenyl-8,9-dihydro-6H-pyrido[3′,2′:4,5]imidazo[2,1-c][1,4]oxazin-2-yl)pyrimidin-2-yl)hexahydroimidazo[1,5-a]pyrazin-3(2H)-one]
< 1 | OC1CCN(c2ncc(-c3nc4c(cc3F)nc3n4[C@@H](c4ccccc4)CC3)cn2)CC1 [Example 55, (R)-1-(5-(3-fluoro-8-phenyl-7,8-dihydro-6H-pyrrolo[2′,1′:2,3]imidazo[4,5-b]pyridin-2-yl)pyrimidin-2-yl)piperidin-4-ol]
